Assay results from ChEMBL document CHEMBL1134205, “Development of novel telomerase inhibitors based on a bisindole unit” (Bioorg Med Chem Lett, 2001).

Experiments:
[1] = target: T1, Telomerase reverse transcriptase (Homo sapiens, UniProt O14746); experiment: Inhibitory concentration against human telomerase
[2] = target: T1, Telomerase reverse transcriptase; experiment: Inhibition ratio of human telomerase was determined by stretch PCR assay with use of 100 uM of the ligand

T1 sequence (O14746 whole entry): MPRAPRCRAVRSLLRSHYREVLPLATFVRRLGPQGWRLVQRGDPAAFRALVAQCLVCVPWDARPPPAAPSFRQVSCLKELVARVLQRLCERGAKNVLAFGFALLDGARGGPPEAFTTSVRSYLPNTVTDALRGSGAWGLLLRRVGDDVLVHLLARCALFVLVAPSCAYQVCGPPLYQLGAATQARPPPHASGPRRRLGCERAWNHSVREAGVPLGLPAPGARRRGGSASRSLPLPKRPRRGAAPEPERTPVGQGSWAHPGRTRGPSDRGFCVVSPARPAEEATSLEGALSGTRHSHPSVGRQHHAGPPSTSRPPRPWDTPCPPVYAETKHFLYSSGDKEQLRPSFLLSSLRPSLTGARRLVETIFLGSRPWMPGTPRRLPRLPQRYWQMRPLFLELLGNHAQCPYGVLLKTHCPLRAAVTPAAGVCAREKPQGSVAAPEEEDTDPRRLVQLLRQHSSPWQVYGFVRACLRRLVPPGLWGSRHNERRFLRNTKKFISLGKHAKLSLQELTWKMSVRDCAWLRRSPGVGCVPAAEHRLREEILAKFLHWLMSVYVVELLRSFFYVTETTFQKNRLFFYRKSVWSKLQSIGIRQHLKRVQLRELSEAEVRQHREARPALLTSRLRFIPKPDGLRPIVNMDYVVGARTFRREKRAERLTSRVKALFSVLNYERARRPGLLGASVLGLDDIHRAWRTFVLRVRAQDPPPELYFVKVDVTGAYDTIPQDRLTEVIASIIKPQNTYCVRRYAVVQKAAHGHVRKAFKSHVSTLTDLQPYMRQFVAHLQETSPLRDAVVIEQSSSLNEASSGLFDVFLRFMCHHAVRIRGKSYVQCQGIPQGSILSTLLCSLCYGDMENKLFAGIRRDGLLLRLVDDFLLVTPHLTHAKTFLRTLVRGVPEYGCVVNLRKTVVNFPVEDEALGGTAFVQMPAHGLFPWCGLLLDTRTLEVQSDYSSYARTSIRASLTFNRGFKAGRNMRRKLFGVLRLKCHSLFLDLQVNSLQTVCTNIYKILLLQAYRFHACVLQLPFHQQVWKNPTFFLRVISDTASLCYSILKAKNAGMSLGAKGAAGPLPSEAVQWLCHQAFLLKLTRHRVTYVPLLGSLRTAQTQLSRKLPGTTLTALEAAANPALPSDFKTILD

For `N#CCCOP(=O)(OCCCCCCCCCCCCNC(=O)Cc1cn(CCn2ccc3cc(Cl)ccc32)c2ccccc12)Oc1cccc(Cl)c1` (configuration not stated), the IC50 [1] was > 100 µM.
Work on `O=C(O)CCCCCCCCCCCNC(=O)Cc1cn(CCCOc2ccccc2)c2ccccc12` yielded an IC50 [1] of 33 µM and an inhibition [2] of 75%.
For `O=C(O)CCCCCCCCCCCNC(=O)Cc1cn(CCCn2cccc2)c2ccccc12`, the IC50 [1] was > 100 µM and the inhibition [2] was 0%.
In the case of `O=C(Cc1cn(CCn2ccc3cc(Cl)ccc32)c2ccccc12)NCCCCCCCCCCCCOP(=O)(O)Oc1cccc(Cl)c1`, the IC50 [1] is reported as 2.5 µM.
In the case of `Cc1c2n(c3ccccc13)CCCn1c-2c(CC(=O)NCCCCCCCCCCCC(=O)O)c2ccccc21`, the IC50 [1] is reported as 50 µM and the inhibition [2] is reported as 82%.
For `O=C(O)CCCCCCCCCCCNC(=O)COc1c(-c2cc3ccccc3[nH]2)[nH]c2ccccc12`, the IC50 [1] was > 100 µM.
`O=C(O)CCCCCCCCCCCNC(=O)Cc1cn(CCOc2cccc3ccccc23)c2ccccc12` was tested, and the IC50 [1] was 35 µM and the inhibition [2] was 65%.
Molecule `O=C(O)CCCCCCCCCCCNC(=O)Cc1c2n(c3ccccc13)CCn1c-2cc2ccccc21` has an IC50 [1] of 62 µM and an inhibition [2] of 62%.
In the case of `O=C(Cc1cn(CCCn2cccc2)c2ccccc12)NCCCCCCCCCCCOP(=O)(O)c1ccccc1Cl`, the IC50 [1] is reported as 4.2 µM.
`O=C(Cc1cn(CCn2ccc3cc(Cl)ccc32)c2ccccc12)NCCCCCCCCCCCCOP(=O)(O)Oc1ccccc1` gave an IC50 [1] of 6.7 µM.
With `Cc1cn(CCCn2cc(CC(=O)NCCCCCCCCCCCCOP(=O)(OCCC#N)Oc3cccc(Cl)c3)c3ccccc32)c2ccccc12` (configuration not stated) the IC50 [1] was > 100 µM.
In the case of `Cc1cn(CCCn2cc(CC(=O)NCCCCCCCCCCCCOP(=O)(O)Oc3cccc(Cl)c3)c3ccccc32)c2ccccc12`, the IC50 [1] is reported as 3.4 µM.
Molecule `O=C(Cc1cn(CCn2ccc3cc(Cl)ccc32)c2ccccc12)NCCCCCCCCCCCCOP(=O)(O)OC1CCCCC1` has an IC50 [1] of 8.7 µM.
For `N#CCCOP(=O)(O)OCCCCCCCCCCCCNC(=O)Cc1cn(CCn2ccc3cc(Cl)ccc32)c2ccccc12`, the IC50 [1] was > 100 µM.
With `O=C(O)CCCCCCCCCCCNC(=O)Cc1cn(CCCn2ccc3ccccc32)c2ccccc12` the IC50 [1] was 92 µM and the inhibition [2] was 46%.
`O=C(O)CCCCCCCCCCCNC(=O)Cc1cn(CCCN2CCCC2)c2ccccc12` was tested, and the IC50 [1] was > 100 µM and the inhibition [2] was 13%.
`Cc1cn(CCCn2cc(CC(=O)NCCCCCCCCCCCC(=O)O)c3ccccc32)c2ccccc12` was tested, and the IC50 [1] was 20 µM and the inhibition [2] was 100%.
Work on `O=C(O)CCCCCCCCCCCNC(=O)Cc1cn(CCCOC2CCCCC2)c2ccccc12` yielded an IC50 [1] of 67 µM and an inhibition [2] of 75%.
`O=C(O)CCCCCCCCCCCNC(=O)Cc1cn(CCn2ccc3ccccc32)c2ccccc12` showed an IC50 [1] of 41 µM and an inhibition [2] of 77%.
For `Cc1cn(CCn2cc(CC(=O)NCCCCCCCCCCCC(=O)O)c3ccccc32)c2ccccc12`, the IC50 [1] was > 100 µM and the inhibition [2] was 7%.
In the case of `O=C(O)CCCCCCCCCCCNC(=O)Cc1cn(CCOc2ccccc2)c2ccccc12`, the inhibition [2] is reported as 0%.
